In ChEMBL document CHEMBL1201861, “Genomics of Drug Sensitity in Cancer screening data, Wellcome Trust Sanger Institute”:

Key:
Test in all cases: cells
DB = assay type: functional, cell-based; settings: Homo sapiens
Description: SANGER: Inhibition of human DB cell growth in a cell viability assay.

DMS-273 = assay type: functional, cell-based, Homo sapiens; settings: Homo sapiens, DMS-273
Description: SANGER: Inhibition of human DMS-273 cell growth in a cell viability assay.

EFM-19 = assay type: functional, cell-based, Homo sapiens; settings: Homo sapiens, EFM-19;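 note: growth inhibition of human EFM-19 cells, measured in a cell viability assay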
Description: SANGER: Inhibition of human EFM-19 cell growth in a cell viability assay.

EOL1 = assay type: functional, cell-based; settings: Homo sapiens;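 note: growth inhibition of EoL-1 cells, read out by a cell viability assay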
Description: SANGER: Inhibition of human EoL-1-cell cell growth in a cell viability assay.

FTC-133 = assay type: functional, cell-based, Homo sapiens; settings: Homo sapiens, FTC-133
HAL-01 = assay type: functional, cell-based; settings: Homo sapiens;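 note: growth inhibition of human HAL-01 cells, read out with a cell viability assay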
Description: SANGER: Inhibition of human HAL-01 cell growth in a cell viability assay.

HCC2157 = assay type: functional, cell-based; settings: Homo sapiens;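 note: growth inhibition of the cancer cell line, read out as cell viability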
Description: SANGER: Inhibition of human HCC2157 cell growth in a cell viability assay.

HCC 2998 = assay type: functional, cell-based, Homo sapiens; settings: Homo sapiens, HCC 2998;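 note: growth inhibition of human HCC2998 cells, measured with a cell viability read-out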
Description: SANGER: Inhibition of human HCC2998 cell growth in a cell viability assay.

HT-144 = assay type: functional, cell-based, Homo sapiens; settings: Homo sapiens, HT-144
Description: SANGER: Inhibition of human HT-144 cell growth in a cell viability assay.

HT-29 = assay type: functional, cell-based, Homo sapiens; settings: Homo sapiens, HT-29;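 note: growth inhibition of human HT-29 cells, read out by a cell viability assay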
Description: SANGER: Inhibition of human HT-29 cell growth in a cell viability assay.

IGR-1 = assay type: functional, cell-based, Homo sapiens; settings: Homo sapiens, IGR-1;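 note: growth inhibition of human IGR-1 cells, read out with a cell viability assay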
Description: SANGER: Inhibition of human IGR-1 cell growth in a cell viability assay.

KINGS-1 = assay type: functional, cell-based, Homo sapiens; settings: Homo sapiens, KINGS-1;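 note: cell viability assay measuring suppression of KINGS-1 cell growth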
Description: SANGER: Inhibition of human KINGS-1 cell growth in a cell viability assay.

KOSC-2 = assay type: functional, cell-based, Homo sapiens; settings: Homo sapiens, KOSC-2;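 note: growth inhibition of KOSC-2 cells, read out by a cell viability assay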
Description: SANGER: Inhibition of human KOSC-2 cell growth in a cell viability assay.

KYSE-510 = assay type: functional, cell-based, Homo sapiens; settings: Homo sapiens, KYSE-510;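 note: cell viability readout used to measure how strongly growth of the cell line is suppressed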
Description: SANGER: Inhibition of human KYSE-510 cell growth in a cell viability assay.

L-363 = assay type: functional, cell-based; settings: Homo sapiens
Description: SANGER: Inhibition of human L-363 cell growth in a cell viability assay.

LB771-HNC = assay type: functional, cell-based, Homo sapiens; settings: Homo sapiens, LB771-HNC;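 note: growth inhibition of LB771-HNC human cells, read out with a cell viability assay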
Description: SANGER: Inhibition of human LB771-HNC cell growth in a cell viability assay.

LXF-289 cell line = assay type: functional, cell-based, Homo sapiens; settings: Homo sapiens, LXF-289
Description: SANGER: Inhibition of human LXF-289 cell growth in a cell viability assay.

MDA-MB-231 = assay type: functional, cell-based, Homo sapiens; settings: Homo sapiens, MDA-MB-231
Description: SANGER: Inhibition of human MDA-MB-231 cell growth in a cell viability assay.

MZ1-PC = assay type: functional, cell-based, Homo sapiens; settings: Homo sapiens, MZ1-PC;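 note: cell viability assay measuring growth inhibition of human MZ1-PC cells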
Description: SANGER: Inhibition of human MZ1-PC cell growth in a cell viability assay.

MZ7-mel = assay type: functional, cell-based, Homo sapiens; settings: Homo sapiens, MZ7-mel;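 note: growth inhibition of human MZ7-mel cells, measured by a cell viability assay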
Description: SANGER: Inhibition of human MZ7-mel cell growth in a cell viability assay.

NCI-H1155 = assay type: functional, cell-based; settings: Homo sapiens;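 note: cell growth inhibition measured by a viability assay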
Description: SANGER: Inhibition of human NCI-H1155 cell growth in a cell viability assay.

NCI-H1395 = assay type: functional, cell-based, Homo sapiens; settings: Homo sapiens, NCI-H1395;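 note: cell viability assay read-out quantifying reduced proliferation of human NCI-H1395 cells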
Description: SANGER: Inhibition of human NCI-H1395 cell growth in a cell viability assay.

NCI-H1793 = assay type: functional, cell-based, Homo sapiens; settings: Homo sapiens, NCI-H1793;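 note: cell growth inhibition, read out by a cell viability assay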
Description: SANGER: Inhibition of human NCI-H1793 cell growth in a cell viability assay.

NCI-H292 = assay type: functional, cell-based, Homo sapiens; settings: Homo sapiens, NCI-H292;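 note: growth inhibition of NCI-H292 cells, read out with a cell viability assay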
Description: SANGER: Inhibition of human NCI-H292 cell growth in a cell viability assay.

NCI-N87 = assay type: functional, cell-based, Homo sapiens; settings: Homo sapiens, NCI-N87;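 note: growth inhibition of human NCI-N87 cells, read out with a cell viability assay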
Description: SANGER: Inhibition of human NCI-N87 cell growth in a cell viability assay.

NTERA-2-cl-D1 = assay type: functional, cell-based, Homo sapiens; settings: Homo sapiens, NTERA-2-cl-D1;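 note: inhibition of cell growth, measured with a cell viability assay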
Description: SANGER: Inhibition of human NTERA-S-cl-D1 cell growth in a cell viability assay.

Panc1005 = assay type: functional, cell-based, Homo sapiens; settings: Homo sapiens, Panc1005;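 note: growth inhibition of human PANC-10-05 cells, measured by a cell viability assay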
Description: SANGER: Inhibition of human PANC-10-05 cell growth in a cell viability assay.

RCM-1 = assay type: functional, cell-based, Homo sapiens; settings: Homo sapiens, RCM-1;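 note: growth inhibition of the RCM-1 line, determined with a cell viability readout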
Description: SANGER: Inhibition of human RCM-1 cell growth in a cell viability assay.

RKO = assay type: functional, cell-based, Homo sapiens; settings: Homo sapiens, RKO;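 note: growth inhibition of human RKO cells, read out with a cell viability assay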
Description: SANGER: Inhibition of human RKO cell growth in a cell viability assay.

RPMI-7951 = assay type: functional, cell-based, Homo sapiens; settings: Homo sapiens, RPMI-7951
Description: SANGER: Inhibition of human RPMI-7951 cell growth in a cell viability assay.

RPMI-8226 = assay type: functional, cell-based; settings: Homo sapiens
Description: SANGER: Inhibition of human RPMI-8226 cell growth in a cell viability assay.

SAS = assay type: functional, cell-based, Homo sapiens; settings: Homo sapiens, SAS;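 note: growth inhibition of SAS cells, read out with a cell viability assay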
Description: SANGER: Inhibition of human SAS cell growth in a cell viability assay.

SF-539 = assay type: functional, cell-based, Homo sapiens; settings: Homo sapiens, SF-539;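 note: Read-out is a cell viability assay, with IC50 reflecting inhibition of cell growth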
Description: SANGER: Inhibition of human SF539 cell growth in a cell viability assay.

SH-4 = assay type: functional, cell-based, Homo sapiens; settings: Homo sapiens, SH-4;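 note: growth inhibition of SH-4 cells, read out with a cell viability assay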
Description: SANGER: Inhibition of human SH-4 cell growth in a cell viability assay.

SK-MEL-1 = assay type: functional, cell-based; settings: Homo sapiens;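 note: growth inhibition of human SK-MEL-1 cells, read out by a cell viability assay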
Description: SANGER: Inhibition of human SK-MEL-1 cell growth in a cell viability assay.

SK-MEL-30 = assay type: functional, cell-based; settings: Homo sapiens;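 note: growth inhibition of SK-MEL-30 cells, determined with a cell viability assay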
Description: SANGER: Inhibition of human SK-MEL-30 cell growth in a cell viability assay.

SW1088 = assay type: functional, cell-based, Homo sapiens; settings: Homo sapiens, SW1088;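 note: growth inhibition of human SW1088 cells, read out by a cell viability assay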
Description: SANGER: Inhibition of human SW1088 cell growth in a cell viability assay.

SW1783 = assay type: functional, cell-based; settings: Homo sapiens;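 note: cell growth inhibition measured with a viability assay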
Description: SANGER: Inhibition of human SW1783 cell growth in a cell viability assay.

SW780 = assay type: functional, cell-based, Homo sapiens; settings: Homo sapiens, SW780;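 note: growth inhibition of the cells, read out with a cell viability assay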
Description: SANGER: Inhibition of human SW780 cell growth in a cell viability assay.

SW 954 = assay type: functional, cell-based, Homo sapiens; settings: Homo sapiens, SW 954;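 note: growth inhibition of SW954 human cancer cells, read out as cell viability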
Description: SANGER: Inhibition of human SW954 cell growth in a cell viability assay.

T84 = assay type: functional, cell-based, Homo sapiens; settings: Homo sapiens, T84;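 note: growth inhibition measured with a cell viability readout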
Description: SANGER: Inhibition of human T84 cell growth in a cell viability assay.

TE-1 = assay type: functional, cell-based, Homo sapiens; settings: Homo sapiens, TE-1;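 note: growth inhibition of the human TE-1 cell line, read out with a cell viability assay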
Description: SANGER: Inhibition of human TE-1 cell growth in a cell viability assay.

8505C = assay type: functional, cell-based, Homo sapiens; settings: Homo sapiens, 8505C
Description: SANGER: Inhibition of human 8505C cell growth in a cell viability assay.

ACHN = assay type: functional, cell-based, Homo sapiens; settings: Homo sapiens, ACHN;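 note: cell viability read-out used to gauge how strongly growth of human ACHN cells is suppressed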
Description: SANGER: Inhibition of human ACHN cell growth in a cell viability assay.

ATN-1 = assay type: functional, cell-based; settings: Homo sapiens;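 note: growth inhibition of human ATN-1 cells, read out with a cell viability assay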
Description: SANGER: Inhibition of human ATN-1 cell growth in a cell viability assay.

BB30-HNC = assay type: functional, cell-based, Homo sapiens; settings: Homo sapiens, BB30-HNC;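 note: growth inhibition of the cultured cell line, read out by a cell viability assay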
Description: SANGER: Inhibition of human BB30-HNC cell growth in a cell viability assay.

BB65-RCC = assay type: functional, cell-based, Homo sapiens; settings: Homo sapiens, BB65-RCC;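 note: growth inhibition of the cell line, measured with a cell viability assay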
Description: SANGER: Inhibition of human BB65-RCC cell growth in a cell viability assay.

CAKI-1 = assay type: functional, cell-based, Homo sapiens; settings: Homo sapiens, CAKI-1;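 note: growth inhibition of CAKI-1 cells, measured by a cell viability assay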
Description: SANGER: Inhibition of human CAKI-1 cell growth in a cell viability assay.

TE-8 = assay type: functional, cell-based, Homo sapiens; settings: Homo sapiens, TE-8;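 note: growth inhibition of TE-8 cells, measured with a cell viability readout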
Description: SANGER: Inhibition of human TE-8 cell growth in a cell viability assay.

TK-10 = assay type: functional, cell-based, Homo sapiens; settings: Homo sapiens, TK-10;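 note: growth inhibition of TK-10 cells, read out in a cell viability assay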
Description: SANGER: Inhibition of human TK10 cell growth in a cell viability assay.

U-87 MG = assay type: functional, cell-based, U-87MG ATCC; settings: Homo sapiens;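 note: growth inhibition of the cells measured with a viability assay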
Description: SANGER: Inhibition of human U-87-MG cell growth in a cell viability assay.

Measured: IC50

CCOc1nc(NC(=O)Cc2cc(OC)ccc2OC)cc(N)c1C#N
> 10 µM: all assays above

CC(=O)O[C@@H]1[C@@H](OC(C)=O)[C@@H](O)[C@H](Oc2c(-c3ccc(O)cc3)oc3cc(O)cc(O)c3c2=O)O[C@H]1C
5.65 µM: HCC2157
9.05 µM: SK-MEL-1
> 10 µM: all other assays above

O=C1N=C(NCc2cccs2)S/C1=C\c1ccc2ncccc2c1
4.22 µM: LXF-289 cell line
3.45 µM: KOSC-2
> 5 µM: all other assays above

COc1ccc(-c2ccc3c(N4CCOC[C@@H]4C)nc(N4CCOC[C@@H]4C)nc3n2)cc1CO [AZD-8055]
1.58 µM: SF-539
1.72 µM: MDA-MB-231
0.25 µM: LXF-289 cell line
0.203 µM: HAL-01
0.534 µM: NCI-H1793
1.91 µM: ACHN
0.708 µM: EFM-19
0.868 µM: RKO
0.706 µM: ATN-1
0.5 µM: DB
1.29 µM: 8505C
0.308 µM: BB65-RCC
1.36 µM: TK-10
0.292 µM: NCI-H292
0.701 µM: NTERA-2-cl-D1
0.735 µM: RPMI-7951
0.286 µM: RPMI-8226
1.46 µM: TE-8
0.39 µM: L-363
0.746 µM: CAKI-1
0.769 µM: DMS-273
1.93 µM: HCC 2998
1.86 µM: BB30-HNC
0.576 µM: SW780
0.0657 µM: EOL1
1.37 µM: SW1088
1.17 µM: HT-144
1.08 µM: KOSC-2 | SH-4
> 2 µM: all other assays above
